Laboratory results taken from patent US5272169A, “(N-benzyl) acetaldehyde bicyclic heterocycles useful as topical antiinflammatories” (The DuPont Merck Pharmaceutical Company, priority 1993, dated 1993).

Test system: TPA-induced edema in murine skin
Experiment: TPA-induced edema in murine skin (mouse ear), topical anti-inflammatory activity
Type: in vivo, mouse (male CF-1)
Details: TPA 1 μg/ear, compound topically in acetone at 100 ug/ear just prior to TPA, 4 h after TPA, 6 mm punch biopsy weight
Description: Anti-inflammatory activities of the investigational compounds were studied in murine skin using the following protocol. Edema was induced by tetradecanoyl phorbol acteate (TPA) (1 μg/ear) [Marks, F., Furstenberger, G., Kownatzki, E., Prostaglandin E Mediated Stimulation of Mouse Epidermis in vivo by Divalent Cation Ionophore A23187 and by Tumor Promotor TPA, Cancer Res. 1981, 41:696-702]. Male CF-1 (Charles River) […] were used. Investigational compounds (in acetone at 100 ug/ear) were applied to one ear just prior to application of the inflammagen. Four hours after TPA application, edema was determined by comparing the weights of 6 mm punch biopsies from control (solvent) and inflammagen-treated ears. Percent inhibitions were calculated using standard equations.

| SMILES | % Inhibition |
| --- | --- |
| O=CCc1ccc(Cn2nnc3ccccc32)cc1 [Example 3 (Part D), 4-(benzotriazol-1'-ylmethyl)phenylacetaldehyde] | 46% |
| O=CCc1ccc(Cn2cnc3ccccc32)cc1 [Example 1 (Part D), 4-(benzimidazol-1'-ylmethyl)phenylacetaldehyde] | 63% |
| O=CCc1ccc(Cn2ncc3ccccc32)cc1 [Example 2 (Part D), 4-(indazol-1'-ylmethyl)phenylacetaldehyde] | 98% |
